{"source": "paper PMC8807399", "about": "“Synthesis, Characterization, and in vivo Evaluation of a Novel Potent Autotaxin-Inhibitor” (Frontiers in Pharmacology, 2022)", "key": {"[1]": {"assay": "Glutathione addition screening", "assay_type": "in vitro ADME", "conditions": "human liver microsomes + NADPH + GSH", "procedure": "All sample handling was performed based on a 96-well plate format using an automated pipetting system. The test compounds, positive controls (diclofenac, troglitazone, nefazodone, 4-[[1-(4-fluorophenyl)-2-methyl-1H-imidazol-4-yl]ethynyl]-2-methylpyridine) and solvent control (DMSO) were incubated with human liver microsomes supplemented with NADPH and reduced GSH. Stable GSH conjugates whose production can be assumed to be the result of chemically reactive metabolites were detected using a quadrupole time of flight mass spectrometer run in untargeted full scan accurate mass MSE mode (Waters Xevo G1 QTOFMSE; Waters GmbH, Eschborn, Germany). This generic GSH adduct detection method and the assay workflow are taking advantage of the specific fragmentation behavior of the peptide moiety upon collision induced dissociation of GSH adducts and so are largely independent of the conjugate (“X”) itself."}, "[2]": {"assay": "In vitro microsomal stability, rat", "assay_type": "in vitro ADME", "conditions": "rat microsomes, 1 µM; value of 10 = low clearance, essentially below detection limit", "procedure": "(§1) Incubations of a test compound at a concentration of 1 µM with microsomes (0.5 mg/ml) from the appropriate species (human, mouse, or rat) plus cofactor NADPH were performed in 96-well plates at 37°C on a TECAN automated liquid handling system (Tecan Group Ltd., Männedorf, Switzerland). After pre-incubation of the test compound with the microsomes for 10 min, the enzymatic reaction was started by the addition of cofactors. Aliquots of the incubations are removed at 1, 3, 6, 9, 15, 25, 35, and 45 min and are then quenched with 1:3 (v/v) acetonitrile containing internal standards. Samples were then cooled and centrifuged before analysis of the supernatant by LC-MS/MS. Logarithmic Peak area ratios (test compound peak area/internal standard peak area) were plotted against incubation time and a linear fit made to the data with emphasis upon the initial rate of compound disappearance. The slope of the fit was then used to calculate the intrinsic clearance: Clint (µL/min/mg protein) = −slope (min-1) * 1,000/[protein concentration (mg/ml)]."}, "[3]": {"assay": "In vitro microsomal stability, mouse", "assay_type": "in vitro ADME", "conditions": "mouse microsomes, 1 µM; value of 10 = low clearance, essentially below detection limit", "procedure": "as §1"}, "5HT2a": {"biological_target": "T1, 5HT2a (Homo sapiens, UniProt P28223)", "T1 construct": "purchased Eurofins CEREP SA", "T1 sequence (P28223 whole entry)": "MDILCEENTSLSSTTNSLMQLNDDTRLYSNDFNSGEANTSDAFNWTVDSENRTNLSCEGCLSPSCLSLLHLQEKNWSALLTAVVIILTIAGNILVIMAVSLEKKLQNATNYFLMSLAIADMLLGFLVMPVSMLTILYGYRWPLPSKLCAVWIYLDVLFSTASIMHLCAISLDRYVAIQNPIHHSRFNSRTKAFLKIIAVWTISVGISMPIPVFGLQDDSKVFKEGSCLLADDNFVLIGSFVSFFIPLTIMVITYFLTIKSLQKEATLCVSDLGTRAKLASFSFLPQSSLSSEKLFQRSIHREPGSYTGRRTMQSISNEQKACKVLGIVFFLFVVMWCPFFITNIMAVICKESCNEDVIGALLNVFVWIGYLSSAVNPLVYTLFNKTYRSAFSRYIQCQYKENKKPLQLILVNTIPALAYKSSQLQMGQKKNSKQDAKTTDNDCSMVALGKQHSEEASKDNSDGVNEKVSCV", "assay": "Off-target screen 5HT2a", "assay_type": "binding", "conditions": "10 µM; single point, duplicates"}, "EAG model rats": {"system": "EAG model rats", "assay": "Experimental autoimmune glaucoma (EAG) model", "assay_type": "in vivo, rat", "conditions": "ONA + ATX-i group; for IOP: 20 mg/kg food admix", "procedure": "Calculations of the daily doses were based on average food intake of rats used in the studies. […] After mixing, ethanol was removed in vacuo until dryness.\nThe regular chow diet for the treatment groups was replaced with the same chow diet containing the treatment substance.\nFor the EAG model, preparation and immunization of the optic nerve antigen (ONA = bovine optic nerve homogenate) was carried out as previously described ([Laspas et al., 2011]; [Joachim et al., 2013]). Rats received an intraperitoneal injection with 8 mg/ml ONA. The antigen was mixed with incomplete Freund’s adjuvant (500 µl) plus 3 µg pertussis toxin (both Sigma Aldrich, St. Louis, MO, United States). The animals of the control group were injected with NaCl in Freund’s adjuvant and pertussis toxin. Rats were sacrificed 28 days after immunization.\nAqueous humor and serum were collected at the end of the EAG study. IgG levels were measured in serum and aqueous humor samples from the EAG study (both: 6-7 samples/group) using a sandwich enzyme-linked immunosorbent assay (ELISA) kit (eBioscience, Frankfurt, Germany) according to the manufacturer’s instructions. In brief, samples of aqueous humor from both groups were prediluted 1,000- or 2,000-fold in assay buffer, serum samples were diluted 100,000- or 200,000-fold in assay buffer. 75 µl of assay buffer were inserted into each sample well. 25 µl of the prediluted sample were added to the appropriate wells. All samples were incubated, and the absorbance was read at 405 nm using a microplate reader (AESKU.Reader with Gen5 ELISA Software, AESKU.DIAGNOSTICS, Wendelsheim, Germany) ([Reinehr et al., 2018]; [Tsai et al., 2018]).\nThe IOP was measured in both eyes of each animal in the EAG study with a rebound tonometer (Tonolab; iCare, Oy, Finland) 1 week before as well as 1, 2, and 3 weeks after immunization (n = 5–6 animals/group). The tonometer was held horizontally in front of the animal’s eye ([Pease et al., 2006]). 10 measurements per eye were recorded. From these values, the mean value was calculated ([Reinehr et al., 2019a]).\nAfter explantation, eyes and optic nerves were fixed in 4% paraformaldehyde for 60 min (eyes) or 120 min (optic nerves) and then treated with 30% sucrose overnight. Afterwards, the retinas and optic nerves were embedded in NEG-50 Tissue-Tek medium (Thermo Fisher, Waltham, MA, United States). Cryo-cross sections of the eyes (10 µm) or longitudinal sections of the optic nerves (4 µm) were cut on a microtome (Thermo Fisher), mounted on Histobond Superfrost^+ slides (Thermo Fisher) and fixed in ice cold acetone for 10 min.\nLongitudinal optic nerve sections (EAG: 5-6 nerves/group, I/R 14 days: 6-7 nerves/group) were stained with H&E and luxol fast blue (LFB). Of each staining, three areas per optic nerve section were documented with a microscope equipped with a CCD camera (Axio Imager M1; Zeiss) as previously described ([Palmhof et al., 2019]). One photo was taken of the proximal part, one of the middle and one of the distal part, right in front of the chiasma.\nCell infiltration in optic nerve sections stained with H&E was evaluated by using a scoring system ranging from 0 to 4 by a masked observer: 0 = no infiltration; 1 = mild cellular infiltration of the optic nerve or optic nerve sheath; 2 = moderate infiltration; 3 = severe infiltration; and 4 = massive infiltration of the optic nerve parenchyma and nodule infiltration ([Shindler et al., 2006]; [Horstmann et al., 2016]; [Renner et al., 2017]). The average score for each optic nerve was used for statistical analysis.\nThe grade of demyelination was monitored in optic nerve sections stained with LFB. Therefore, staining was scored from 0 to 2 and categorized as follows: 0 = no demyelination; 0.5 = mild demyelination; 1 = moderate demyelination; 1.5 = advanced demyelination; and 2 = severe demyelination up to dissolution of the tissue."}, "S1P1": {"biological_target": "T2, S1P1 (Homo sapiens, UniProt P21453)", "T2 construct": "purchased Eurofins CEREP SA", "T2 sequence (P21453 whole entry)": "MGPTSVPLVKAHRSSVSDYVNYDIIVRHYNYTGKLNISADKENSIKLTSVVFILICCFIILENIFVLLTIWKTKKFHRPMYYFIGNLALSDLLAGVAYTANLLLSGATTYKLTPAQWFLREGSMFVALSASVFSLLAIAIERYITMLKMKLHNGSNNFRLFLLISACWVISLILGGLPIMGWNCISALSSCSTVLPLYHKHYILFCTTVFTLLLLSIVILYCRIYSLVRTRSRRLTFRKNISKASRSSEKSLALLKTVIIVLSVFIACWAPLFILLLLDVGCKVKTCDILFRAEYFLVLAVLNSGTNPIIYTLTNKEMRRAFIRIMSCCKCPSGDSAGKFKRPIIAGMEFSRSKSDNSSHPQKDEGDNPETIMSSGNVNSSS", "assay": "Off-target screen S1P1, antagonist mode", "assay_type": "cell-based", "conditions": "10 µM, single point, duplicates"}, "Muscarininc receptor M4": {"biological_target": "T3, Muscarininc receptor M4 (Homo sapiens, UniProt P08173)", "T3 construct": "purchased Eurofins CEREP SA", "T3 sequence (P08173 whole entry)": "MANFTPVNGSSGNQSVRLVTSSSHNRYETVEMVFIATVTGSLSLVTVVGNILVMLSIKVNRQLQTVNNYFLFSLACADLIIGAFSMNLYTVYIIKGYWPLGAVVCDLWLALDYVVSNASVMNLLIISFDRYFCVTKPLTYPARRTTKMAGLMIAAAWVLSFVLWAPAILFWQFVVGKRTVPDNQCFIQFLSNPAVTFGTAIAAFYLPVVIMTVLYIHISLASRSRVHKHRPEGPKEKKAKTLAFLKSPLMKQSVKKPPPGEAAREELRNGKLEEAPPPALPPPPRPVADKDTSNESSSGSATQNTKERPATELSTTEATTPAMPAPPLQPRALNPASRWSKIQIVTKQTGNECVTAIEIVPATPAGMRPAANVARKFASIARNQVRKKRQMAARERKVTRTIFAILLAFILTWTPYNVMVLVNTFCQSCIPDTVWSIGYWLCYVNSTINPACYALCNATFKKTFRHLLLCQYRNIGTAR", "assay": "Off-target screen Muscarinic M4", "assay_type": "binding", "conditions": "10 µM; single point, duplicates"}}}
{"molecule": "O=C(OCc1ccc(OC(F)(F)F)cc1)N1C[C@@H]2CN(C(=O)c3ccc4[nH]nnc4c3)C[C@H]2C1", "note": "[Compound 13, (3aS,6aS)-5-(1H-Benzotriazole-5-carbonyl)-hexahydro-pyrrolo[3,4-c]pyrrole-2-carboxylic acid 4-trifluoromethoxy-benzyl ester]", "values": [{"measurement": "GSH adducts", "setting": "[1]", "value": "Neg"}, {"measurement": "Mic CL r", "setting": "[2]", "value": "10/10/10 µL/m/mg prot"}, {"measurement": "Mic CL m", "setting": "[3]", "value": "10/10/10 µL/m/mg prot"}, {"measurement": "5HT2a (h) [% inhib]", "setting": "5HT2a", "value": 39, "unit": "% inhib"}, {"measurement": "IOP", "setting": "EAG model rats; 1 week after immunization, ONA 10.44 ± 0.62, control 11.26 ± 0.54", "value": "10.54 ± 0.40", "unit": "mmHg"}, {"measurement": "IOP", "setting": "EAG model rats; 1 week before immunization, ONA 10.34 ± 0.67, control 10.36 ± 1.03", "value": "10.91 ± 0.50", "unit": "mmHg"}, {"measurement": "IOP", "setting": "EAG model rats; 2 weeks after immunization, ONA 10.74 ± 0.55, control 11.36 ± 0.52", "value": "10.85 ± 0.42", "unit": "mmHg"}, {"measurement": "IOP", "setting": "EAG model rats; 3 weeks after immunization, ONA 10.77 ± 0.77, control 11.47 ± 0.62", "value": "10.69 ± 0.60", "unit": "mmHg"}, {"measurement": "ED1+ and Iba1+ active microglia, optic nerve", "setting": "EAG model rats; 28 days, ONA 0.27 ± 0.24, control 0.06 ± 0.11", "value": "0.22 ± 0.10", "unit": "cells/image"}, {"measurement": "Iba1+ microglia, optic nerve", "setting": "EAG model rats; 28 days, ONA 3.14 ± 0.94, control 1.28 ± 0.15", "value": "2.96 ± 0.92", "unit": "cells/image"}, {"measurement": "ED1+ and Iba1+ microglia, retina", "setting": "EAG model rats; 28 days, ONA 7.70 ± 6.27, control 1.52 ± 1.28", "value": "5.08 ± 1.86", "unit": "cells/mm"}, {"measurement": "GFAP area, retina", "setting": "EAG model rats; 28 days, ONA 13.55 ± 3.42, control 9.72 ± 0.84", "value": "10.30 ± 2.29 area [%]/section"}, {"measurement": "Iba1+ microglia cell count, retina", "setting": "EAG model rats; 28 days, ONA 22.06 ± 7.81, control 13.67 ± 3.04", "value": "19.76 ± 2.82", "unit": "cells/mm"}, {"measurement": "Brn-3a+ RGC number, retina", "setting": "EAG model rats; 28 days, ONA 29.47 ± 6.20, control 58.11 ± 4.22, p = 0.032 vs ONA", "value": "38.59 ± 4.33", "unit": "cells/mm"}, {"measurement": "Optic nerve LFB score", "setting": "EAG model rats; 28 days, score 0-2, ONA 0.58 ± 0.20, control 0.31 ± 0.13", "value": "0.77 ± 0.66"}, {"measurement": "GFAP score, optic nerve", "setting": "EAG model rats; 28 days, score 0-2, ONA 0.81 ± 0.17, control 0.71 ± 0.26", "value": "1.00 ± 0.29"}, {"measurement": "Optic nerve SMI-32 score", "setting": "EAG model rats; 28 days, score 0-2, ONA 0.91 ± 0.08, control 0.58 ± 0.14", "value": "0.75 ± 0.19"}, {"measurement": "Optic nerve H&E score", "setting": "EAG model rats; 28 days, score 0-4, ONA 1.22 ± 0.43, control 0.80 ± 0.51", "value": "1.27 ± 0.86"}, {"measurement": "Serum IgG level", "setting": "EAG model rats; end of EAG study, ONA 15.78 ± 5.00, control 8.31 ± 5.76", "value": "12.30 ± 2.70", "unit": "mg/mL"}, {"measurement": "Aqueous humor IgG level", "setting": "EAG model rats; end of EAG study, ONA 272.24 ± 98.17, control 62.31 ± 19.91, p = 0.025 vs ONA", "value": "167.26 ± 34.50", "unit": "µg/mL"}, {"measurement": "S1P1 (h), antago. mode [% inhib]", "setting": "S1P1", "value": 8, "unit": "% inhib"}, {"measurement": "Muscarininc receptor M4 (h) [% inhib]", "setting": "Muscarininc receptor M4", "value": -17, "unit": "% inhib"}]}
